Reference: PubChem BioAssay (NCI)
Where “and” joins values, the source holds several entries; their conditions need not be identical. Equal values may be shown once.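 Interpolation was linear, between the two tested concentrations surrounding the appropriate level; five concentrations were tested over 48 hours in 96-well plates. Here, GI50 denotes the concentration required for 50% inhibition of growth. TGI: total growth inhibition.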

How the values were obtained:
Experiment in all cases: NCI-60 cell line screen, 48 h
NCI/ADR-RES ovarian = tested on: NCI/ADR-RES ovarian
T-47D breast = tested on: T-47D breast
LOX IMVI melanoma = tested on: LOX IMVI melanoma
HCT-116 colon = tested on: HCT-116 colon
COLO 205 colon = tested on: COLO 205 colon
SK-OV-3 ovarian = tested on: SK-OV-3 ovarian
NCI-H460 lung = tested on: NCI-H460 lung
NCI-H226 lung = tested on: NCI-H226 lung
DU-145 prostate = tested on: DU-145 prostate
M14 melanoma = tested on: M14 melanoma

Row | SMILES | TGI (NCI/ADR-RES ovarian) | TGI (T-47D breast) | TGI (LOX IMVI melanoma) | TGI (HCT-116 colon) | TGI (COLO 205 colon) | TGI (SK-OV-3 ovarian) | TGI (NCI-H460 lung) | TGI (NCI-H226 lung) | TGI (DU-145 prostate) | TGI (M14 melanoma) | GI50 (NCI/ADR-RES ovarian) | GI50 (T-47D breast) | GI50 (HCT-116 colon) | GI50 (COLO 205 colon) | GI50 (NCI-H460 lung) | GI50 (NCI-H226 lung) | GI50 (LOX IMVI melanoma) | GI50 (SK-OV-3 ovarian) | GI50 (DU-145 prostate) | GI50 (M14 melanoma)
1 | COc1ccc(N2C(=O)C(=O)N(C)C2=O)c2ccccc12 | > 10 µM | > 10 µM | > 10 µM | > 10 µM | > 10 µM | > 10 µM | > 10 µM | > 10 µM | > 10 µM | > 10 µM | – | – | – | – | – | – | – | – | – | –
2 | CN(CC(=O)O)CC(=O)O | > 100 µM | > 100 µM | > 100 µM | > 100 µM | > 100 µM | > 100 µM | > 100 µM | > 100 µM | > 100 µM | > 100 µM | – | – | – | – | – | – | – | – | – | –
3 | CC[C@@]1(O)C(=O)OCc2c1cc1n(c2=O)Cc2cc3c(CN(C)C)c(O)ccc3nc2-1 | 3.22 µM and 19.7 µM and 4.78 µM | – | 362 nM [middle of 4 runs] | 18.9 µM and 11.7 µM | 4.85 µM [middle of 4 runs] | – | 0.499 µM and 1.58 µM and 0.222 µM | 1.28 µM [middle of 4 runs] | – | – | 0.0737 µM and 0.355 µM and 0.105 µM | < 0.0117 µM and 0.0189 µM and 0.0186 µM | 0.0681 µM | 0.384 µM and 0.089 µM and 0.855 µM | < 0.01 µM and 0.00456 µM and 0.021 µM | 0.0153 µM and 0.0964 µM and 0.0626 µM | – | – | – | –
4 | O=S(=O)(Nc1nccs1)c1ccc([As](=O)(O)O)cc1 | > 100 µM | > 100 µM | > 100 µM | > 100 µM | > 100 µM | > 100 µM | > 100 µM | > 100 µM | > 100 µM | > 100 µM | – | – | – | – | – | – | – | – | – | –
5 | Clc1ccc(C2CC(c3cccc(Nc4ccncc4)c3)=NN2c2ccccc2)cc1 (stereo unspecified) | – | 4.86 µM | 3.06 µM | 2.98 µM | 4.5 µM | 7.33 µM | 3.65 µM | 39.5 µM | 3.27 µM | 3.37 µM | – | 2.1 µM | 1.48 µM | 1.96 µM | 1.91 µM | 16.4 µM | 1.64 µM | 2.57 µM | 1.73 µM | 1.73 µM
6 | COC1=CC(=O)c2c(c(COC(C)=O)cn2C)C1=O | 0.295 µM | 3.67 µM | 0.431 µM | 0.216 µM | 0.0943 µM | 0.677 µM | 0.835 µM | 0.424 µM | 0.247 µM | 0.195 µM | – | – | – | – | – | – | – | – | – | –
7 | CC(C(=O)NCCNC(=O)CCCC(=O)N(C)O)C(=O)NCCNC(=O)CCCC(=O)N(C)O | > 100 µM | > 100 µM | > 100 µM | – | > 100 µM | > 100 µM | > 100 µM | > 100 µM | > 100 µM | > 100 µM | – | – | – | – | – | – | – | – | – | –
8 | CC(C)=CC1C(COC(=O)c2ccccc2Cl)C1(C)C (stereo unspecified) | > 100 µM | > 100 µM | 38.9 µM | > 100 µM | – | – | > 100 µM | 82.2 µM | > 100 µM | > 100 µM | – | – | – | – | – | – | – | – | – | –
9 | CC1(CO)C(O)CCC2(C)C1C(O)CC1CC3CC12CCC3(O)CO (stereo unspecified) | > 225 µM | – | > 225 µM | > 225 µM | > 225 µM | > 225 µM | > 225 µM | 224 µM | – | – | – | – | – | – | – | – | – | – | – | –
10 | CCN(CC)CCCC(C)Nc1c2ccc(Cl)cc2nc2cc(Cl)ccc12 (stereo unspecified) | – | – | 6.94 µM | 7.56 µM | 5.01 µM | 21.9 µM | 12 µM | 9.76 µM | – | – | – | – | – | – | – | – | – | – | – | –
11 | O=[N+]([O-])c1ccc(Cc2nc3cc4ccccc4cc3[nH]2)cc1C(F)(F)F | 23.9 µM | 21.6 µM | > 100 µM | 26.8 µM | 34.3 µM | 31 µM | 38.5 µM | – | 57.2 µM | 25.2 µM | – | – | – | – | – | – | – | – | – | –
12 | CC(=O)Nc1c2sscc-2n(C)c1=O | 4.22 µM | 3.19 µM | 3.39 µM | 1.96 µM | 1.84 µM | 2.84 µM | 1.32 µM | 3.4 µM | 5.54 µM | 0.865 µM | – | – | – | – | – | – | – | – | – | –
13 | CNCCCn1c2c(c3ccc(Cl)cc3c1=O)C(=O)c1cc(OC)cnc1-2 | 2.91 µM | – | – | – | – | 2.08 µM | 1.25 µM | 3.86 µM | 1.74 µM | 1.89 µM | 0.536 µM | – | – | – | 0.0462 µM | 1.35 µM | – | 0.658 µM | 0.331 µM | 0.569 µM
14 | CSC1=C(SC)C(=O)c2cn(C)c(=O)cc2C1=O | > 100 µM | 3.99 µM | 3.91 µM | 3.33 µM | 2.89 µM | 31.3 µM | 32 µM | 40.4 µM | 21 µM | 3.14 µM | – | – | – | – | – | – | – | – | – | –
15 | CC(C)C(=O)Nc1ccc(-c2nc(-c3cccc(OCCN4CCOCC4)c3)c(-c3ccnc(Br)c3)[nH]2)cc1 | > 100 µM | 34.2 µM | 3.57 µM | 13.5 µM | 6.59 µM | 5.53 µM | 25.4 µM | 19.8 µM | > 100 µM | 4.46 µM | 6.23 µM | 2.68 µM | 3.04 µM | 2.42 µM | 3.98 µM | 3.79 µM | 1.7 µM | 2.45 µM | 4.48 µM | 1.93 µM
